Measured values reported in patent US8541476B2, “Compounds for treatment of malignant tumors” (The Trustees of the University of Pennsylvania, priority 2007, dated 2013).

Columns and labels:
[1] = NS-123 toxicity evaluation in nu/nu mice; format: in vivo
Method: Female nu/nu (nude) mice (6-8 weeks old; Charles River, Wilmington, Mass.) were maintained at the WFUSM animal facility under conditions approved by the Animal Care and Use Committee. NS-123 in DMSO was mixed with 30% propylene glycol (DMSO concentration<1%) and administered via an i.p. injection at a dose of 50 mg/kg to three mice on three consecutive days. The mice were monitored over 30 days for signs of drug-related toxicity, lethality, and weight loss. Mice were euthanized by CO2 asphyxiation and necropsy was performed by a veterinary pathologist. The heart, lung, liver, spleen, kidney, brain, salivary gland, gastrointestinal tract, ovary, uterus, adrenal gland, and thyroid gland were preserved in 10% neutral buffered formalin for at least 48 hours. The tissues were embedded in paraffin, processed routinely for histology, cut at 4-6 microns, stained with hematoxylin and eosin and examined by light microscopy.
To test this hypothesis, 50 mg/kg (i.p.) was administered to nude mice for 3 consecutive days. Clinical signs of drug toxicity and lethality were not observed over the following 30 days.

[2] = system: HT-29 colorectal cancer cells; test: Clonogenic survival assay, HT-29 cells; format: cell-based, human
Method: U251, HT-29, or A549 cells were plated at different densities in triplicate, treated with NS-123 or DMSO (alone) and irradiated 4, 8, or 12 hours later with a range of doses using ^137Cs γ-rays at a dose rate of ˜4 Gy/minute (min). One hour after irradiation, the medium was replaced with fresh medium without NS-123 or DMSO. The cells were fixed 7-14 days after IR and stained with crystal violet.
Clonogenic survival assays were performed.
In both cases, cells were pretreated with the compounds or DMSO vehicle control for 4 hours prior to treatment with ionizing radiation at the indicated doses.

[3] = system: U251 cells transplanted into ZF embryos; test: U251 xenograft ZF model (U251-RFP fluorescence); format: in vivo, Danio rerio
Method: ZF were raised in accordance with previously established protocols (McAleer, et al., 2005, J. Radiat. Oncol. Biol. Phys. 61:10-3) at the University of Pennsylvania School of Medicine. Embryos were maintained at 30° C. after transplantation procedures. The age of embryos is indicated as the hours post-fertilization (hpf) and days post-fertilization (dpf) for all experimental data shown. Embryos were either irradiated with 10 Gy or sham-irradiation as previously described (McAleer, et al., 2005, J. Radiat. Oncol. Biol. Phys. 61:10-3) immediately after photography at 24 hpf. Selected embryos were incubated with NS-123 at a concentration of 30 μM for 14 hours before either irradiation or sham-irradiation.
U251 cells were stably transfected with a RFP construct (pDsRed2-C 1; Clontech, Palo Alto, Calif.). Using a Nanoject II microinjector (Drummond Scientific, Broomall, Pa.) 1-100 cells were transplanted into each ZF embryo still in the chorion, from the high stage of their development (approximately 3.5 hpf) to the oblong-sphere stage (approximately 4.5 hpf). The transplantation site was localized either to the blastodisc approximately halfway between the margin and the animal pole or the center of the embryonic yolk sac. Morphological analysis was performed as previously described (Geiger, et al., 2006, Cancer Res. 66:8172-81). Transplanted embryos were examined under a 100× PlanNeofluor objective mounted on a Nikon TE-200 epifluorescence microscope. Images of embryos bearing RFP-positive cells were captured with a Hammamatsu CCD camera controlled with IP LabSpectrum v2.0.1 software (Scanalytics, Inc., Rockville, Md.). Image analysis and pseudocoloring was performed with Kodak Molecular Imaging software v. 4.0.5 (Kodak, Rochester, N.Y.). […]
Human cancer cells can be transplanted into ZF embryos through microinjection (Lee et al., 2005, Dev. Dyn. […]:1560-1570; Haldi et al., 2006, Angiogenesis 9:139-151; Mizgireuv et al., 2006, Cancer Res. 66:3120-3125). […] The embryos were subsequently examined for fluorescence on sequential days following irradiation.

[4] = system: U251 tumors xenografts; test: U251 xenograft mouse model, tumor growth delay; format: in vivo
Method: U251 cells (5×10^6) were suspended in 0.1 mL of PBS and then injected into the flanks of nu/nu female nude mice. After tumors formed (45±10 mm^3), mice were randomly assigned into one of four groups: DMSO+Sham IR, DMSO+5 Gy IR, NS-123+Sham IR, and NS-123+5 Gy IR. NS-123 was administered as described above. Groups not receiving NS-123 were treated with the same volume of DMSO alone dissolved in 30% propylene glycol. Mouse flanks were irradiated 4 hours following the second injection with 5 Gy (Precision X-Ray, Inc, North Branford, Conn.) given as one fraction or Sham IR. Tumor volumes were measured every other day based on the formula: Volume=length^2×width where length was always the longest dimension.
Data are presented as average relative tumor volume (RTV), where: RTV[Dayx]=Volume[Dayx]/Volume[Day0]
The measurement of tumor regrowth was calculated by the time needed to grow to 10× the treatment volume. As per Seo et al, 2005, (Clin. Cancer Res. 11:7499-507), the in vivo radiosensitizer enhancement ratio was defined as the ratio: TNS-123+IR/TDMSO+IR where T is tumor regrowth delay (days)
To investigate in a more sophisticated model the radiosensitization observed by NS-123 in ZF, a growth delay assay of U251 tumors xenografts in nu/nu nude mice was performed. Mice were treated for 3 consecutive days with either NS-123 or DMSO (i.p.) and received either 5 Gy IR or Sham IR 4 hours after the second injection (see Table at the bottom FIG. 7A). […] Furthermore, they provide additional support for the use of the novel ZF xenograft model as a faster, more economical screening tool for potential in vivo radiosensitizing activity of lead compounds.

SMILES: CCC(=O)c1ccc(Br)c([N+](=O)[O-])c1 [NS-123, 4′-bromo-3′-nitropropiophenone]
- gross and histopathological examination ([1]; female, nu/nu (nude), mouse, in vivo, ip, 50 mg/kg): did not reveal any evidence suggestive of NS-123 associated toxicity
- clinical signs of drug toxicity and lethality ([1]; nude mice, 50 mg/kg i.p. 3 consecutive days, 30 days observation): not observed
- DER at 0.5 survival ([2]; HT-29, 5 μM for 12 hours prior to IR): 3.0
- DER at 0.1 survival ([2]; HT-29, pretreatment with NS-123): 3.0
- surviving U251 cells, irradiated in the presence of drug ([3]; NS-123 + 10 Gy IR, 5 dpf): markedly fewer cells
- relative fluorescence versus irradiated-only control ([3]; NS-123 + IR, 10 embryos/condition/experiment): faster decrease in luminescence
- size of U251 xenografts, drug alone ([3]; NS-123 alone, 3 or 5 dpf): did not have any significant effect on the size
- mean time to reach Relative Tumor Volume (RTV)=10 ([4]; NS-123 50 mg/kg i.p. x3 days + 5 Gy IR): 20 days
- mean time to reach Relative Tumor Volume (RTV)=10 ([4]; NS-123 50 mg/kg i.p. x3 days + Sham IR): 12 days
- in vivo radiosensitizer enhancement ratio ([4]; ratio of tumor regrowth delay NS-123+IR / DMSO+IR): 2.0
